According to PMC5421785, “Citrullination only infrequently impacts peptide binding to HLA class II MHC” (PLoS ONE, 2017):
Read-outs that look alike come from different tables or passages of the source. Square brackets hold non-standard residues; d marks the D form. Peptide text beside a SMILES is read from it. Cit = NC(=O)NCCC[C@H](N)C(=O)O

Key:
HLA-DRB1*01:01 = target: T1, HLA-DRB1*01:01 (Homo sapiens, UniProt P01903+P01911, A100R/D57E/F55L/F60I/F76Y/I96L/L162R/M171V/P40L/Q125E/R42F/V115G/Y59C); assay: HLA class II peptide binding, inhibition of radiolabeled peptide binding to purified MHC; conditions: for IC50: read-out: DRB1*01:01 binding capacity, Cit peptide (IC50 nM)
T1 construct: EBV transformed homozygous cell lines were used as sources of MHC molecules; endogenous in cells; host or cells: EBV transformed homozygous cell lines

HLA-DRB1*04:01 = target: T2, HLA-DRB1*04:01 (Homo sapiens, UniProt P01903+P01911, A100K/A169T/F76Y/I96L/K127E/L162R/M171V/N62H/P40V/Q125Y/R42H/S133A/S149N/S66Y/V115G/V209L/W38E); assay: as above; conditions: for IC50: read-out: DRB1*04:01 binding capacity, Cit peptide (IC50 nM)
T2 construct: EBV transformed homozygous cell lines were used as sources of MHC molecules; endogenous in cells; host or cells: EBV transformed homozygous cell lines

[1] = citrullinated 15-mer peptide (X = citrulline), purified HLA-DRB1*01:01
[2] = citrullinated 15-mer peptide (X = citrulline), purified HLA-DRB1*04:01
[3] = citrullinated 15-mer (X), purified MHC, inhibition of radiolabeled peptide binding, dash = IC50 >40,000 nM
[4] = ratio of WT IC50 to Cit IC50, >1 = citrullination increases binding

SMILES	IC50 (HLA-DRB1*01:01; [1]) [nM]	IC50 (HLA-DRB1*04:01; [2]) [nM]	IC50 (HLA-DRB1*01:01; [3]) [nM]	IC50 (HLA-DRB1*04:01; [3]) [nM]	DRB1*01:01 binding capacity, WT/cit ratio (HLA-DRB1*01:01; [4])	DRB1*04:01 binding capacity, WT/cit ratio (HLA-DRB1*04:01; [4])
CC[C@H](C)[C@H](NC(=O)[C@H](CC(C)C)NC(=O)[C@H](CC(C)C)NC(=O)[C@@H](NC(=O)[C@H](CCCNC(N)=O)NC(=O)[C@H](CCCCN)NC(=O)[C@H](CO)NC(=O)[C@H](Cc1c[nH]cn1)NC(=O)[C@@H](N)[C@@H](C)O)[C@@H](C)O)C(=O)N[C@@H](CCCCN)C(=O)N[C@H](C(=O)N[C@H](C(=O)N[C@@H](CCC(=O)O)C(=O)N[C@H](C(=O)N[C@@H](CCCNC(=N)N)C(=O)O)[C@@H](C)O)C(C)C)[C@@H](C)O [THSKXTLLIKTVETR] (H-THSK[Cit]TLLIKTVETR-OH)	176	6430	–	–	–	–
CC[C@H](C)[C@H](NC(=O)[C@@H](NC(=O)[C@H](CCC(N)=O)NC(=O)CNC(=O)[C@H](CC(=O)O)NC(=O)[C@H](CCCNC(N)=O)NC(=O)[C@@H](NC(=O)[C@H](CCC(=O)O)NC(=O)[C@@H](NC(=O)[C@@H](NC(=O)[C@H](CCCCN)NC(=O)[C@@H](NC(=O)[C@H](CC(C)C)NC(=O)[C@H](CC(C)C)NC(=O)[C@@H](N)[C@@H](C)O)[C@@H](C)CC)[C@@H](C)O)C(C)C)[C@@H](C)O)C(C)C)C(=O)O [TLLIKTVETXDGQVI] (H-TLLIKTVET[Cit]DGQVI-OH)	2120	2260	–	–	–	–
CSCC[C@H](NC(=O)[C@H](CCC(=O)O)NC(=O)[C@H](CCCNC(N)=O)NC(=O)[C@H](CCSC)NC(=O)[C@H](CCC(N)=O)NC(=O)[C@H](CCCNC(=N)N)NC(=O)[C@H](CCC(=O)O)NC(=O)[C@H](CC(C)C)NC(=O)[C@H](CO)NC(=O)[C@H](CCC(=O)O)NC(=O)[C@H](CC(N)=O)NC(=O)[C@@H](N)[C@@H](C)O)C(=O)N[C@@H](CCC(=O)O)C(=O)N[C@@H](CCC(=O)O)C(=O)N[C@@H](CC(N)=O)C(=O)O [TNESLERQMXEMEEN] (H-TNESLERQM[Cit]EMEEN-OH)	29700	> 40000	–	–	–	–
CSCC[C@H](NC(=O)[C@H](CCC(=O)O)NC(=O)[C@H](CCCNC(=N)N)NC(=O)[C@H](CCSC)NC(=O)[C@H](CCC(N)=O)NC(=O)[C@H](CCCNC(N)=O)NC(=O)[C@H](CCC(=O)O)NC(=O)[C@H](CC(C)C)NC(=O)[C@H](CO)NC(=O)[C@H](CCC(=O)O)NC(=O)[C@H](CC(N)=O)NC(=O)[C@@H](N)[C@@H](C)O)C(=O)N[C@@H](CCC(=O)O)C(=O)N[C@@H](CCC(=O)O)C(=O)N[C@@H](CC(N)=O)C(=O)O [TNESLEXQMREMEEN] (H-TNESLE[Cit]QMREMEEN-OH; N-terminus and C-terminus assumed)	> 40000	> 40000	–	–	0.318	1.0
CC(C)C[C@H](NC(=O)[C@H](CC(N)=O)NC(=O)[C@@H](N)[C@@H](C)O)C(=O)N[C@@H](CC(=O)O)C(=O)N[C@@H](CO)C(=O)N[C@@H](CC(C)C)C(=O)N1CCC[C@H]1C(=O)N[C@@H](CC(C)C)C(=O)N[C@H](C(=O)N[C@@H](CC(=O)O)C(=O)N[C@H](C(=O)N[C@@H](Cc1c[nH]cn1)C(=O)N[C@@H](CO)C(=O)N[C@@H](CCCCN)C(=O)N[C@@H](CCCNC(N)=O)C(=O)O)[C@@H](C)O)C(C)C [TNLDSLPLVDTHSKX] (H-TNLDSLPLVDTHSK[Cit]-OH)	772	> 40000	–	–	–	–
CC[C@H](C)[C@H](NC(=O)[C@@H](NC(=O)[C@H](CCC(N)=O)NC(=O)CNC(=O)[C@H](CC(=O)O)NC(=O)[C@H](CCCNC(N)=O)NC(=O)[C@@H](NC(=O)[C@H](CCC(=O)O)NC(=O)[C@@H](NC(=O)[C@@H](N)[C@@H](C)O)C(C)C)[C@@H](C)O)C(C)C)C(=O)N[C@@H](CC(N)=O)C(=O)N[C@@H](CCC(=O)O)C(=O)N[C@H](C(=O)N[C@@H](CO)C(=O)N[C@@H](CCC(N)=O)C(=O)O)[C@@H](C)O [TVETXDGQVINETSQ] (H-TVET[Cit]DGQVINETSQ-OH)	7860	14300	–	–	–	–
CC(C)C[C@H](NC(=O)[C@H](CCC(N)=O)NC(=O)[C@H](CC(=O)O)NC(=O)[C@@H](N)C(C)C)C(=O)N[C@H](C(=O)N[C@@H](CC(N)=O)C(=O)N[C@@H](CC(=O)O)C(=O)N[C@@H](CCCCN)C(=O)N[C@@H](C)C(=O)N[C@@H](CCCNC(=N)N)C(=O)N[C@H](C(=O)N[C@@H](CCC(=O)O)C(=O)N[C@H](C(=O)N[C@@H](CCC(=O)O)C(=O)N[C@@H](CCCNC(N)=O)C(=O)O)C(C)C)C(C)C)[C@@H](C)O [VDQLTNDKARVEVEX] (H-VDQLTNDKARVEVE[Cit]-OH)	–	–	7420	> 40000	–	–

More lines, now with the values ahead:

IC50 (HLA-DRB1*01:01; [1]) [nM]	IC50 (HLA-DRB1*04:01; [2]) [nM]	IC50 (HLA-DRB1*01:01; [3]) [nM]	IC50 (HLA-DRB1*04:01; [3]) [nM]	DRB1*01:01 binding capacity, WT/cit ratio (HLA-DRB1*01:01; [4])	DRB1*04:01 binding capacity, WT/cit ratio (HLA-DRB1*04:01; [4])	SMILES
> 40000	31800	–	–	–	–	CC[C@H](C)[C@H](NC(=O)[C@H](CCC(=O)O)NC(=O)[C@H](CC(=O)O)NC(=O)[C@H](CCC(N)=O)NC(=O)[C@H](CC(C)C)NC(=O)[C@H](CCCNC(N)=O)NC(=O)CNC(=O)[C@@H](NC(=O)[C@@H](N)[C@@H](C)O)[C@@H](C)CC)C(=O)N[C@@H](CCC(N)=O)C(=O)N[C@@H](CC(N)=O)C(=O)N[C@@H](CCSC)C(=O)N[C@@H](CCCCN)C(=O)N[C@@H](CCC(=O)O)C(=O)N[C@@H](CCC(=O)O)C(=O)O [TIGXLQDEIQNMKEE] (H-TIG[Cit]LQDEIQNMKEE-OH)
–	–	5570	> 40000	–	–	CC(C)C[C@H](NC(=O)[C@H](CCC(=O)O)NC(=O)[C@H](CCC(N)=O)NC(=O)[C@H](CC(C)C)NC(=O)[C@H](CCC(=O)O)NC(=O)[C@@H](NC(=O)[C@H](CCCCN)NC(=O)[C@H](CCC(=O)O)NC(=O)[C@H](CC(N)=O)NC(=O)[C@@H](N)[C@@H](C)O)C(C)C)C(=O)N[C@@H](CC(N)=O)C(=O)N[C@@H](CC(=O)O)C(=O)N[C@@H](CCCNC(N)=O)C(=O)N[C@@H](Cc1ccccc1)C(=O)N[C@@H](C)C(=O)O [TNEKVELQELNDXFA] (H-TNEKVELQELND[Cit]FA-OH)
–	–	20400	> 40000	–	–	CC(C)C[C@H](NC(=O)[C@H](CCC(N)=O)NC(=O)[C@H](CC(=O)O)NC(=O)[C@@H](N)C(C)C)C(=O)N[C@H](C(=O)N[C@@H](CC(N)=O)C(=O)N[C@@H](CC(=O)O)C(=O)N[C@@H](CCCCN)C(=O)N[C@@H](C)C(=O)N[C@@H](CCCNC(N)=O)C(=O)N[C@H](C(=O)N[C@@H](CCC(=O)O)C(=O)N[C@H](C(=O)N[C@@H](CCC(=O)O)C(=O)N[C@@H](CCCNC(=N)N)C(=O)O)C(C)C)C(C)C)[C@@H](C)O [VDQLTNDKAXVEVER] (H-VDQLTNDKA[Cit]VEVER-OH)
–	–	19600	17100	–	–	CC[C@H](C)[C@H](NC(=O)[C@H](CC(=O)O)NC(=O)[C@H](CCC(=O)O)NC(=O)[C@H](C)NC(=O)[C@H](CC(C)C)NC(=O)[C@H](CC(N)=O)NC(=O)[C@H](CC(=O)O)NC(=O)[C@H](CCCNC(=N)N)NC(=O)[C@H](CCC(=O)O)NC(=O)[C@@H](NC(=O)[C@H](CCC(=O)O)NC(=O)[C@@H](N)C(C)C)C(C)C)C(=O)N[C@@H](CCSC)C(=O)N[C@@H](CCCNC(N)=O)C(=O)N[C@@H](CC(C)C)C(=O)O [VEVERDNLAEDIMXL] (H-VEVERDNLAEDIM[Cit]L-OH)
–	–	27100	16300	–	–	CC[C@H](C)[C@H](NC(=O)[C@H](CC(=O)O)NC(=O)[C@H](CCC(=O)O)NC(=O)[C@H](C)NC(=O)[C@H](CC(C)C)NC(=O)[C@H](CC(N)=O)NC(=O)[C@H](CC(=O)O)NC(=O)[C@H](CCCNC(N)=O)NC(=O)[C@H](CCC(=O)O)NC(=O)[C@@H](NC(=O)[C@H](CCC(=O)O)NC(=O)[C@@H](N)C(C)C)C(C)C)C(=O)N[C@@H](CCSC)C(=O)N[C@@H](CCCNC(=N)N)C(=O)N[C@@H](CC(C)C)C(=O)O [VEVEXDNLAEDIMRL] (H-VEVE[Cit]DNLAEDIMRL-OH)
